Source: paper PMC10185561, “RagD auto-activating mutations impair MiT/TFE activity in kidney tubulopathy and cardiomyopathy syndrome” (Nature Communications, 2023)

Target: T1, GST-RagD (Homo sapiens, UniProt Q9NQL2)
T1 construct: gene RRAGD; GST fusion from pET24d(+) in E. coli Rosetta (DE3), glutathione Sepharose; RagD alone without RagA/B; GST tag kept
Assay: UV crosslinking of alpha-32P-GTP, SDS-PAGE, autoradiography
Format: binding
Conditions: labelled compound; 1 nM alpha-32P-GTP; 31.25 nM to 2 uM protein; 2 mM MgCl2; 50 mM HEPES pH 7.5; 100 mM potassium acetate; 4 h at 4 C

T1 sequence (Q9NQL2 whole entry, the tested form may be a part): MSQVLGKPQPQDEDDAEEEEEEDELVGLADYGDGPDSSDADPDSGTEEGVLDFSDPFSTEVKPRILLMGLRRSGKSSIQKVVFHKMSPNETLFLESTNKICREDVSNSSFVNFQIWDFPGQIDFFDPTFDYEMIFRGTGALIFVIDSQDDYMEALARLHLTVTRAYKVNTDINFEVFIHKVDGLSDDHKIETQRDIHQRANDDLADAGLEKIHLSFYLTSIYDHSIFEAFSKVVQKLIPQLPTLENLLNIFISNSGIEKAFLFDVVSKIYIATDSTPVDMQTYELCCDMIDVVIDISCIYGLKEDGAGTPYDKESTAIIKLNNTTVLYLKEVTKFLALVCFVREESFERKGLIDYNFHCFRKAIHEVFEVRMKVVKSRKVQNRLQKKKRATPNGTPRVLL

Nc1nc2c(ncn2[C@@H]2O[C@H](COP(=O)(O)OP(=O)(O)OP(=O)(O)O)[C@@H](O)[C@H]2O)c(=O)[nH]1 [GTP]
UV crosslinking of alpha-32P-GTP, SDS-PAGE, autoradiography: WT RagD bound GTP in a concentration-dependent manner
